From patent publication US8642601B2, “Inhibitors of JNK” (Roche Palo Alto LLC, priority 2010, dated 2014) come the findings set out here.

pIC50: −log10 of the molar value. Counter-ions that a name gives are not always drawn.

Test system in the first series: not given
Assay: not given
Conditions: not given
For `CCN1CCN(C(=O)[C@H]2CC[C@H](Nc3nccc(-n4ccc5c(OCC6CCS(=O)(=O)C6)cccc54)n3)CC2)C[C@H]1C` (stereo partly drawn) (as salt: HCl) [Compound 3, (4-{4-[4-(1,1-Dioxo-tetrahydro-1λ^6-thiophen-3-ylmethoxy)-indol-1-yl]-pyrimidin-2-ylamino}-cyclohexyl)-((R)-4-ethyl-3-methyl-piperazin-1-yl)-methanone], the melting point is 225 °C.

Compound `CCN1CCN(C(=O)[C@H]2CC[C@H](Nc3nccc(-n4ccc5c(OCC6CCS(=O)(=O)C6)cccc54)n3)CC2)C[C@@H]1C` (stereo partly drawn) (as salt: HCl) [Compound 9, (4-{4-[4-(1,1-Dioxo-tetrahydro-1λ^6-thiophen-3-ylmethoxy)-indol-1-yl]-pyrimidin-2-ylamino}-cyclohexyl)-((S)-4-ethyl-3-methyl-piperazin-1-yl)-methanone] yielded a melting point of 198 to 204 °C.

The compound `CCCN1CC[C@@H](NC(=O)[C@H]2CC[C@H](Nc3nccc(-n4ccc5c(OCCCS(C)(=O)=O)cccc54)n3)CC2)C1` (as salt: HCl) [Compound 11, 4{4-[4-(3-Methanesulfonyl-propoxy)-indol-1-yl]-pyrimidin-2-ylamino}-cyclohexanecarboxylic acid ((R)-1-propyl-pyrrolidin-3-yl)-amide] gave a melting point of 140 to 142 °C.

`CCN1CC[C@H](NC(=O)[C@H]2CC[C@H](Nc3nccc(-n4ccc5c(OCCCS(C)(=O)=O)cccc54)n3)CC2)C1` (as salt: HCl) [Compound 13, 4-{4-[4-(3-Methanesulfonyl-propoxy)-indol-1-yl]-pyrimidin-2-ylamino}-cyclohexanecarboxylic acid ((S)-1-ethyl-pyrrolidin-3-yl)-amide] showed a melting point of 160 to 162 °C.

`CCN1CCC[C@@H](NC(=O)[C@H]2CC[C@H](Nc3nccc(-n4ccc5c(OCCCS(C)(=O)=O)cccc54)n3)CC2)C1` (as salt: HCl) [Compound 15, 4-{4-[4-(3-Methanesulfonyl-propoxy)-indol-1-yl]-pyrimidin-2-ylamino}-cyclohexanecarboxylic acid ((R)-1-ethyl-piperidin-3-yl)-amide] returned a melting point of 180 to 185 °C.

The compound `C[C@@H]1CN(C(=O)[C@H]2CC[C@H](Nc3nccc(-n4ncc5c(OCCCS(C)(=O)=O)cccc54)n3)CC2)CCN1` (as salt: HCl) [Compound 24, (4-{4-[4-(3-Methanesulfonyl-propoxy)-indazol-1-yl]-pyrimidin-2-ylamino}-cyclohexyl)-((R)-3-methyl-piperazin-1-yl)-methanone] registered a melting point of 245 to 250 °C.

Take `C[C@H]1CN(C(=O)[C@H]2CC[C@H](Nc3nccc(-n4ncc5c(OCC6CCS(=O)(=O)C6)cccc54)n3)CC2)CCN1` (stereo partly drawn) (as salt: HCl) [Compound 25, (4-{4-[4-(1,1-Dioxo-tetrahydro-1λ^6-thiophen-3-ylmethoxy)-indazol-1-yl]-pyrimidin-2-ylamino}-cyclohexyl)-((S)-3-methyl-piperazin-1-yl)-methanone]: the melting point lay within 245 to 250 °C.

For the compound `CC1(C)CN(C(=O)[C@H]2CC[C@H](Nc3nccc(-n4ccc5c(OCC6CCS(=O)(=O)C6)cccc54)n3)CC2)CCN1` (stereo partly shown) (as salt: HCl) [Compound 28, (3,3-Dimethyl-piperazin-1-yl)-(4-{4-[4-(1,1-dioxo-tetrahydro-1λ^6-thiophen-3-ylmethoxy)-indol-1-yl]-pyrimidin-2-ylamino}-cyclohexyl)-methanone], the melting point was over 300 °C.

Compound `CCN1CCCC(NC(=O)[C@H]2CC[C@H](Nc3nccc(-n4ccc5c(OCC6CCS(=O)(=O)C6)cccc54)n3)CC2)C1` (stereo partly shown) (as salt: HCl) [Compound 29, 4-{4-[4-(1,1-Dioxo-tetrahydro-1λ^6-thiophen-3-ylmethoxy)-indol-1-yl]-pyrimidin-2-ylamino}-cyclohexanecarboxylic acid (1-ethyl-piperidin-3-yl)-amide] displayed a melting point of 205 to 210 °C.

The compound `CCOC1CC2CCC(C1)N2C(=O)[C@H]1CC[C@H](Nc2nccc(-n3ccc4c(OCCCS(C)(=O)=O)cccc43)n2)CC1` (stereo partly shown) (as salt: salt) [Compound 26, (3-Ethoxy-8-aza-bicyclo[3.2.1]oct-8-yl)-(4-{4-[4-(3-methanesulfonyl-propoxy)-indol-1-yl]-pyrimidin-2-ylamino}-cyclohexyl)-methanone; compound with formic acid] displayed a melting point of 125 to 130 °C.

On to `CCCN1CCC[C@H](NC(=O)[C@H]2CC[C@H](Nc3nccc(-n4ccc5c(OCCCS(C)(=O)=O)cccc54)n3)CC2)C1` (stereo in doubt) (as salt: HCl) [Compound 14, 4-{4-[4-(3-Methanesulfonyl-propoxy)-indol-1-yl]-pyrimidin-2-ylamino}-cyclohexanecarboxylic acid ((R)-1-propyl-piperidin-3-yl)-amide], for which the melting point lay in the range of 185 to 190 °C.

For the compound `CCOC(=O)CC1CCN(C(=O)[C@H]2CC[C@H](Nc3nccc(-n4ccc5c(OCCCS(C)(=O)=O)cccc54)n3)CC2)CC1` [Compound 1, [1-(4-{4-[4-(3-Methanesulfonyl-propoxy)-indol-1-yl]-pyrimidin-2-ylamino}-cyclohexanecarbonyl)-piperidin-4-yl]-acetic acid ethyl ester], the melting point lay within 175 to 177 °C.

In the next series the test system is T1, JNK.
T1 construct: Human JNK2α2 assay contains 1 nM enzyme; Human JNK1α1 assay contains 2 nM enzyme
As to the kind of experiment: JNK Assay in vitro (phosphorylation of GST-ATF2 (19-96) with [γ-33P] ATP). The series is classed as biochemical. The note with it: JNK isoform not stated for Table 1 (method describes human JNK1α1, JNK2α2, JNK3); Km concentrations of ATP and substrate. As to the method:
JNK activity was measured by phosphorylation of GST-ATF2 (19-96) with [γ-^33P] ATP. The enzyme reaction was conducted at Km concentrations of ATP and the substrate at final volume of 40 μl in buffer containing 25 mM HEPES, pH 7.5, 2 mM dithiothreitol, 150 mM NaCl, 20 mM MgCl2, 0.001% Tween® 20, 0.1% BSA and 10% DMSO. Human JNK2α2 assay contains 1 nM enzyme, 1 μM ATF2, 8 μM ATP with 1 uCi [γ-^33P] ATP. Human JNK1α1 assay contains 2 nM enzyme, 1 μM ATF2, 6 μM ATP with 1 μCi [γ-^33P] ATP. Human JNK3 (Upstate Biotech #14-501M) assay contains 2 nM enzyme, 1 μM ATF2, 4 μM ATP with 1 μCi [γ-^33P] ATP. The enzyme assay was carried out in the presence or absence of several compound concentrations. JNK and compound were pre-incubated for 10 min., followed by initiation of the enzymatic reaction by adding ATP and the substrate. The reaction mixture was incubated at 30° C. for 30 min. At the end of incubation, the reaction was terminated by transferring 25 μl of the reaction mixture to 150 μl of 10% glutathione Sepharose® slurry (Amersham #27-4574-01) containing 135 mM EDTA. The reaction product was captured on the affinity resin, and washed on a filtration plate (Millipore, MABVNOB50) with phosphate buffered saline for six times to remove free radionucleotide. The incorporation of ^33P into ATF2 was quantified on a microplate scintillation counter (Packard Topcount). Compound inhibition potency on JNK was measured by IC50 value generated from ten concentration inhibition curves fitted into the 3-parameter model: % inhibition=Maximum/(1+(IC50/[Inhibitor])^slope). Data were analyzed on Microsoft Excel for parameter estimation.
In turn, `CCOC(=O)CC1CCN(C(=O)[C@H]2CC[C@H](Nc3nccc(-n4ccc5c(OCCCS(C)(=O)=O)cccc54)n3)CC2)CC1` [Compound 1, [1-(4-{4-[4-(3-Methanesulfonyl-propoxy)-indol-1-yl]-pyrimidin-2-ylamino}-cyclohexanecarbonyl)-piperidin-4-yl]-acetic acid ethyl ester] gave a negative-log IC50 (pIC50) of 6.26.

For the compound `CN1C2CCC1CN(C(=O)[C@H]1CC[C@H](Nc3nccc(-n4ccc5c(OCCCS(C)(=O)=O)cccc54)n3)CC1)C2` [Compound 22], the pIC50 is 7.00.

`C[C@@H]1CN(C(=O)[C@H]2CC[C@H](Nc3nccc(-n4ncc5c(OCCCS(C)(=O)=O)cccc54)n3)CC2)CCN1` [Compound 24, (4-{4-[4-(3-Methanesulfonyl-propoxy)-indazol-1-yl]-pyrimidin-2-ylamino}-cyclohexyl)-((R)-3-methyl-piperazin-1-yl)-methanone] had a pIC50 of 7.22.

In turn, `C[C@H]1CN(C(=O)[C@H]2CC[C@H](Nc3nccc(-n4ncc5c(OCC6CCS(=O)(=O)C6)cccc54)n3)CC2)CCN1` (stereo partly drawn) [Compound 25, (4-{4-[4-(1,1-Dioxo-tetrahydro-1λ^6-thiophen-3-ylmethoxy)-indazol-1-yl]-pyrimidin-2-ylamino}-cyclohexyl)-((S)-3-methyl-piperazin-1-yl)-methanone] gave a pIC50 of 7.34.

As for `CCOC1CC2CCC(C1)N2C(=O)[C@H]1CC[C@H](Nc2nccc(-n3ccc4c(OCCCS(C)(=O)=O)cccc43)n2)CC1` (stereo partly shown) [Compound 26, (3-Ethoxy-8-aza-bicyclo[3.2.1]oct-8-yl)-(4-{4-[4-(3-methanesulfonyl-propoxy)-indol-1-yl]-pyrimidin-2-ylamino}-cyclohexyl)-methanone; compound with formic acid], the negative-log IC50 (pIC50) was 7.05. This pIC50 lies 0.29 log units lower than the previous one.

For the compound `C[C@H]1CN(C(=O)[C@H]2CC[C@H](Nc3nccc(-n4ncc5c(OCC6CCS(=O)(=O)C6)cccc54)n3)CC2)CCN1` (stereo partly drawn) [Compound 27, (4-{4-[4-(1,1-Dioxo-tetrahydro-1λ^6-thiophen-3-ylmethoxy)-indazol-1-yl]-pyrimidin-2-ylamino}-cyclohexyl)-((S)-3-methyl-piperazin-1-yl)-methanone], the pIC50 is 7.22.

`CC1(C)CN(C(=O)[C@H]2CC[C@H](Nc3nccc(-n4ccc5c(OCC6CCS(=O)(=O)C6)cccc54)n3)CC2)CCN1` (stereo partly shown) [Compound 28, (3,3-Dimethyl-piperazin-1-yl)-(4-{4-[4-(1,1-dioxo-tetrahydro-1λ^6-thiophen-3-ylmethoxy)-indol-1-yl]-pyrimidin-2-ylamino}-cyclohexyl)-methanone] showed a pIC50 of 7.01.

`CCN1CCCC(NC(=O)[C@H]2CC[C@H](Nc3nccc(-n4ccc5c(OCC6CCS(=O)(=O)C6)cccc54)n3)CC2)C1` (stereo partly shown) [Compound 29, 4-{4-[4-(1,1-Dioxo-tetrahydro-1λ^6-thiophen-3-ylmethoxy)-indol-1-yl]-pyrimidin-2-ylamino}-cyclohexanecarboxylic acid (1-ethyl-piperidin-3-yl)-amide] had a pIC50 of 7.03.

Take `CCN1CCC[C@H]1CNC(=O)[C@H]1CC[C@H](Nc2nccc(-n3ccc4c(OCCCS(C)(=O)=O)cccc43)n2)CC1` [Compound 30, 4-{4-[4-(3-Methanesulfonyl-propoxy)-indol-1-yl]-pyrimidin-2-ylamino}-cyclohexanecarboxylic acid ((S)-1-ethyl-pyrrolidin-2-ylmethyl)-amide]: the pIC50 was 7.07.

Regarding `CCN1CCC[C@@H]1CNC(=O)[C@H]1CC[C@H](Nc2nccc(-n3ccc4c(OCCCS(C)(=O)=O)cccc43)n2)CC1` [Compound 31, 4-{4-[4-(3-Methanesulfonyl-propoxy)-indol-1-yl]-pyrimidin-2-ylamino}-cyclohexanecarboxylic acid ((R)-1-ethyl-pyrrolidin-2-ylmethyl)-amide], the pIC50 was 7.01. This pIC50 and that of the compound before are within 0.2 log units of each other.

The melting point is the temperature of the solid-liquid transition. The term pIC50 denotes the IC50 on a negative log10 scale, so that one unit is a factor of ten. High values mean a low IC50, low ones a high IC50.
